Reference: the SangsterLogP compilation

Compound `C/C=C/C=C/C(=O)N1Cc2cc(OCCc3nc(/C(C)=C/CCC(C)C)oc3C)ccc2C[C@H]1C(=O)O` has a logP of 4.29. In the case of `C/C=C/C=C/C(=O)N1Cc2cc(OCCc3nc(/C=C/C(C)(C)C)oc3C)ccc2C[C@H]1C(=O)O`, the logP is reported as 3.1. `CCOC/C=C/C(=O)N1Cc2cc(OCCc3coc(/C=C/CCCC(C)C)n3)ccc2CC1C(=O)O` (configuration not stated) showed a logP of 3.52. In the case of `CC(C)CCC/C=C/c1nc(CCOc2ccc3c(c2)CN(C(=O)/C=C/c2cccs2)C(C(=O)O)C3)co1` (configuration not stated), the logP is reported as 3.95. With `C/C=C/C=C/C(=O)N1Cc2cc(OCCc3nc(C=CCC(C)C)oc3C)ccc2CC1C(=O)O` (configuration not stated) the logP was 3.23. `C/C=C/C=C/C(=O)N1Cc2cc(OCCc3nc(/C=C/C(C)C)oc3C)ccc2C[C@H]1C(=O)O` gave a logP of 2.77. In the case of `C/C=C/C=C/C(=O)N1Cc2cc(OCCc3nc(/C=C/CCC(C)C)oc3C)ccc2C[C@H]1C(=O)O`, the logP is reported as 3.81. `CCCCCC(=O)N1Cc2cc(OCCc3coc(/C=C/CCCC(C)C)n3)ccc2CC1C(=O)O` (configuration not stated) gave a logP of 4.34. Compound `Cc1oc(/C=C/CCC(C)C)nc1CCOc1ccc2c(c1)CN(C(=O)/C=C/C=C/CO)C(C(=O)O)C2` (configuration not stated) has a logP of 3.09. `CCO/C=C/C(=O)N1Cc2cc(OCCc3coc(/C=C/CCCC(C)C)n3)ccc2CC1C(=O)O` (configuration not stated) gave a logP of 3.56. Compound `C/C=C/C=C/C(=O)N1Cc2cc(OCCc3nc(/C(=C/C)CC)oc3C)ccc2C[C@H]1C(=O)O` has a logP of 2.75. For `CC(C)CCC/C=C/c1nc(CCOc2ccc3c(c2)CN(C(=O)/C=C/C2CC2)C(C(=O)O)C3)co1` (configuration not stated), the logP was 3.69. For `C=CCCC(=O)N1Cc2cc(OCCc3nc(/C=C/CCC(C)C)oc3C)ccc2C[C@H]1C(=O)O`, the logP was 3.76. `C=CCCCC(=O)N1Cc2cc(OCCc3coc(/C=C/CCCC(C)C)n3)ccc2CC1C(=O)O` (configuration not stated) gave a logP of 4.03. Compound `C/C=C/C=C/C(=O)N1Cc2cc(OCCc3nc(CCCCC(C)C)oc3C)ccc2C[C@H]1C(=O)O` has a logP of 3.79. For `C/C=C/C=C/C(=O)N1Cc2cc(OCCc3nc(/C=C/C(C)CCC)oc3C)ccc2C[C@H]1C(=O)O` (some centres not stated), the logP was 3.84. `Cc1oc(/C=C/CCC(C)C)nc1CCOc1ccc2c(c1)CN(C(=O)/C=C/c1ccco1)[C@H](C(=O)O)C2` showed a logP of 3.76. `C/C=C/C=C/C(=O)N1Cc2cc(OCCc3nc(/C=C/CC(C)(C)C)oc3C)ccc2C[C@H]1C(=O)O` gave a logP of 3.59. For `C/C=C/C=C/C(=O)N1Cc2cc(OCCc3nc(/C=C/C(C)(C)CC)oc3C)ccc2C[C@H]1C(=O)O`, the logP was 3.52. With `CC(C)=C/C=C/C(=O)N1Cc2cc(OCCc3coc(/C=C/CCCC(C)C)n3)ccc2CC1C(=O)O` (configuration not stated) the logP was 4.09. Work on `CCC/C=C/C(=O)N1Cc2cc(OCCc3coc(/C=C/CCCC(C)C)n3)ccc2CC1C(=O)O` (configuration not stated) yielded a logP of 4.04. For `C/C=C/C=C/C(=O)N1Cc2cc(OCCc3nc(/C=C/C(CC)CC)oc3C)ccc2C[C@H]1C(=O)O`, the logP was 3.68. In the case of `C/C=C/C=C/C(=O)N1Cc2cc(OCCc3nc(/C=C/CCCC(C)C)oc3C)ccc2CC1C(=O)O` (configuration not stated), the logP is reported as 4.1. Compound `CC(C)CCC/C=C/c1nc(CCOc2ccc3c(c2)CN(C(=O)/C=C/c2ccco2)C(C(=O)O)C3)co1` (configuration not stated) has a logP of 3.76. `C/C=C/C=C/C(=O)N1Cc2cc(OCCc3nc(/C(C)=C/CC)oc3C)ccc2C[C@H]1C(=O)O` showed a logP of 2.88. `CCOCCC(=O)N1Cc2cc(OCCc3coc(/C=C/CCCC(C)C)n3)ccc2CC1C(=O)O` (configuration not stated) gave a logP of 3.48. Compound `CCC(O)/C=C/C(=O)N1Cc2cc(OCCc3coc(/C=C/CCCC(C)C)n3)ccc2CC1C(=O)O` (configuration not stated) has a logP of 3.33.
